# US20180036314A1, “METHODS AND COMPOSITIONS FOR TREATING PERIPHERAL VASCULAR DISEASE” (Exodos Life Sciences Limited Partnership, priority 2009, published 2018)
# How the values were obtained:
# pig skin = test: Local cutaneous blood flow in pigs after topical application (laser Doppler); type: in vivo; details: for Local cutaneous blood flow, FLOW (MV), 10 min. after treatment / Local cutaneous blood flow, FLOW (MV), 20 min. after treatment / Local cutaneous blood flow, FLOW (MV), 30 min. after treatment / Local cutaneous blood flow, FLOW (MV), 60 min. after treatment / Local cutaneous blood flow, FLOW (MV), 120 min after treatment / Local cutaneous blood flow, FLOW (MV), 180 min. after treatment: topical
# Method: A stable depth of sedation was maintained with continuous intravenous methohexital, titrated to a minimal lid reflex and a regular respiratory rate. Throughout the experiment, the animals spontaneously breathed through a “snout-cone” connected to a standard anesthesia machine delivering 100% oxygen. The dorsal surface of the animal was cleaned with tepid water. Ten sites (2×2 cm each) were defined on the dorsal surface of the animal with permanent marker. […] MAP was recorded at the start and end of each Doppler scan. A dose volume of 0.1 mL of vehicle, control, or test article was applied to each site. L-arginine monohydrate and sildenafil citrate were prepared in commercially available Veecogel Cream base formulation (available from PCCA, 9901 South […], Houston, Tex., USA) containing […], Coconut oil, Capryloic Acid, […], Squalane, Boric Acid, Polysorbate 80, Sorbitan Monooleate 80, Simethicone, Butylated hydroxytoluene. Sildenafil citrate 1% was dissolved in propylene glycol 2% and combine with base with constant mixing. L-arginine monohydrate 10% and 1% were dissolved in 2% propylene glycol and combined with the Veecogel described above. No two adjacent sites were administered the same concentration of any control or test article and administration was temporally spaced to allow at least 2 minutes between dosing each site. […] Applications were made in the same order and over the same time span as the baseline blood flow measurements. […] Blood flow at the untreated, control site was measured immediately prior to and immediately after the measurements at the treated sites. These two measurements were averaged to obtain the control blood flow for each interval. Serum levels of local drugs were not measured. Regional differences in blood flow were accounted for by normalizing the measurements of flow made after injection of a test solution to the baseline flow at the site prior to application. Changes in blood flow are expressed as a percent change from control blood flow. Variations in skin blood flow over the course of the experiment were accounted for by normalizing the changes in blood flow at a given site to the changes in blood flow at a control site. Thus, the change in cutaneous blood flow at a treatment site can be determined by the formula: [formula] where Sx is the blood flow at an injected site X min after application, So is the baseline flow at that site prior to application, Cx is the flow at the control site X min after the application, and Co is the blood flow at the control site at the same time that the baseline flow measurements were made.
# [1] = system: hands of normal human volunteers; test: Skin temperature recovery of the hand after cold water immersion (infrared camera); type: in vivo; details: topical, acclimation at 25° C.
# Method: The effects of L-arginine and sidelnafil citrate in the regulation of human blood flow was determined by measuring the rate of skin temperature recovery in the hands of normal human volunteers following a period of cold water immersion. The measurements were performed at room temperature 25° C., for a period of 30 minutes after acclimatization. L-arginine monohydrate and sildenafile citrate were prepared in commercially available Veecogel Cream base formulation containing Krisgel 100™, Coconut oil, Capryloic Acid, Triglicerides, Squalane, Boric Acid, Polysorbate 80, Sorbitan Monooleate 80, Simethicone, Butylated hydroxytoluene. Sildenafil citrate 1% was dissolved in propylene glycol 2% and combine with base with constant mixing. L-arginine monohydrate 10% and 1% were dissolve in 2% propylene glycol and combine with the Veecogel described above.
# Skin temperature was measured with an infrared camera FLIR T300 (FLIR Systems, Inc., Boston, Mass., USA). Changes in skin temperature were determined after cooling of hand for 2 minutes in ice water by analyzing individual thermal images with FLIR Quick Report software. The effects of test drugs were determined following application of substance to the cooled hand. Thermal images of a patient receiving the control treatment and of a patient receiving the combination treatment were taken at 0, 5, and 15 minutes after treatment, and are shown in FIGS. 1A and 1B, respectively.
# [2] = system: patients with secondary Raynaud's phenomenon; details: oral 50 mg twice daily for 4 weeks, cited from earlier work
# [3] = system: patients with Raynaud's phenomenon; details: cited from earlier work
# [4] = system: patients with Raynaud's phenomenon secondary to scleroderma; details: in vivo; cited from earlier work
# [5] = system: primary Raynaud's symptoms; details: in vivo; cited from earlier work
# [6] = system: patient suffering from Raynaud's phenomenon secondary to chemotherapy; details: single patient; equipotent doses; cited from earlier work
# [7] = in vivo; cited from earlier work
# [8] = system: patients with scleroderma and lupus; details: in vivo; cited from earlier work
# [9] = system: vasospastic attacks and peripheral blood flow; details: oral 20 mg 2 or 3 times per week during 4 weeks; compared to pentoxifylline 600 mg b.i.d.; cited from earlier work
compound,measurement,setting,value
"N=C(N)NCCC[C@H](N)C(=O)O [Arginine, L-arginine]",Effect on dermal blood flow,pig skin; topical application,increased dermal blood flow in a dose and time dependent manner
same,"Local cutaneous blood flow, FLOW (MV), 10 min. after treatment",pig skin; dose 1%,0.41 MV
same,"Local cutaneous blood flow, FLOW (MV), 20 min. after treatment",pig skin; dose 1%,12.47 MV
same,"Local cutaneous blood flow, FLOW (MV), 30 min. after treatment",pig skin; dose 1%,5.55 MV
same,"Local cutaneous blood flow, FLOW (MV), 60 min. after treatment",pig skin; dose 1%,2.71 MV
same,"Local cutaneous blood flow, FLOW (MV), 120 min after treatment",pig skin; dose 1%,7.91 MV
same,"Local cutaneous blood flow, FLOW (MV), 180 min. after treatment",pig skin; dose 1%,10.26 MV
same,"Local cutaneous blood flow, FLOW (MV), 10 min. after treatment",pig skin; dose 10%,19.82 MV
same,"Local cutaneous blood flow, FLOW (MV), 20 min. after treatment",pig skin; dose 10%,21.88 MV
same,"Local cutaneous blood flow, FLOW (MV), 30 min. after treatment",pig skin; dose 10%,22.07 MV
same,"Local cutaneous blood flow, FLOW (MV), 60 min. after treatment",pig skin; dose 10%,38.45 MV
same,"Local cutaneous blood flow, FLOW (MV), 120 min after treatment",pig skin; dose 10%,40.21 MV
same,"Local cutaneous blood flow, FLOW (MV), 180 min. after treatment",pig skin; dose 10%,38.72 MV
same,"Change in skin temperature from baseline, 1 min.",[1]; dose 10% W/v,2.5 °C
same,"Change in skin temperature from baseline, 2 min.",[1]; dose 10% W/v,4 °C
same,"Change in skin temperature from baseline, 5 min.",[1]; dose 10% W/v,5 °C
same,"Change in skin temperature from baseline, 10 min.",[1]; dose 10% W/v,9.5 °C
same,"Change in skin temperature from baseline, 15 min.",[1]; dose 10% W/v,11.5 °C
"CCCc1nn(C)c2c(=O)[nH]c(-c3cc(S(=O)(=O)N4CCN(C)CC4)ccc3OCC)nc12 [Sildenafil, 5-[2-ethoxy-5-(4-methyl-1-piperazinylsulphonyl)phenyl]-1-methyl-3-n-propyl-1,6-dihydro-7H-pyrazolo[4,3-d]pyrimidin-7-one]",Effect on blood flow,pig skin; topical concentration of 1% in Veecogel cream base,increased blood flow in the areas of application
same,"Local cutaneous blood flow, FLOW (MV), 10 min. after treatment",pig skin; dose 1%,−10.31 MV
same,"Local cutaneous blood flow, FLOW (MV), 20 min. after treatment",pig skin; dose 1%,−3.51 MV
same,"Local cutaneous blood flow, FLOW (MV), 30 min. after treatment",pig skin; dose 1%,−1.57 MV
same,"Local cutaneous blood flow, FLOW (MV), 60 min. after treatment",pig skin; dose 1%,1.58 MV
same,"Local cutaneous blood flow, FLOW (MV), 120 min after treatment",pig skin; dose 1%,3.15 MV
same,"Local cutaneous blood flow, FLOW (MV), 180 min. after treatment",pig skin; dose 1%,15.73 MV
same,"Change in skin temperature from baseline, 1 min.",[1]; dose 1% W/v,1 °C
same,"Change in skin temperature from baseline, 2 min.",[1]; dose 1% W/v,4 °C
same,"Change in skin temperature from baseline, 5 min.",[1]; dose 1% W/v,6.5 °C
same,"Change in skin temperature from baseline, 10 min.",[1]; dose 1% W/v,8.5 °C
same,"Change in skin temperature from baseline, 15 min.",[1]; dose 1% W/v,12.5 °C
same,Digital ulcers in patients who had digital ulcers at baseline,[2],ulcer healing was observed
same,Increase in mean capillary flow velocity,[2],more than 4 fold
same,Frequency and duration of Raynaud's attacks,[2]; compared to placebo,reduction in the frequency and duration of Raynaud's attacks compared to placebo
same,Increase in forearm blood flow,"[3]; oral, after treatment",75%
same,Patients with a reduction in pain and frequency of Raynaud's phenomenon attacks,[4],80%
same,Patients with digital ulcer healing (of those with digital ulcers at baseline),[4],75%
same,Primary Raynaud's symptoms,[5],failed to improve primary Raynaud's symptoms
same,Response of Raynaud's symptoms and capillary blood flow,[6],did not respond
same,Half-life,[7],3.8 h
Cc1c(C)c2c(c(C)c1O)CC[C@@](C)(CCC[C@H](C)CCC[C@H](C)CCCC(C)C)O2 [α-tocopherol],Effects on blood flow parameters,[3]; comparator arm,no effects on blood flow parameters
"CN1CC(=O)N2[C@H](c3ccc4c(c3)OCO4)c3[nH]c4ccccc4c3C[C@@H]2C1=O [tadalafil, (6R,12aR)-2,3,6,7,12,12a-hexahydro-2-methyl-6-(3,4-methylenedioxyphenyl)-pyrazino[2′,1′:6,1]pyrido[3,4-b]indole-1,4-dione]",Raynaud's symptoms,[8],reduced Raynaud's symptoms
same,Peripheral blood flow at the end of the treatment period,[9],increased peripheral blood flow
same,Vasospastic attack frequency and duration,[9],significant reduction in vasospastic attack frequency and duration
same,Response of Raynaud's symptoms and capillary blood flow,[6],improved Raynaud's symptoms and increased capillary blood flow
